From US20260124188A1, “mGluR receptor antagonists for use in prevention andor treatment of bone marrow lesions (BML) andor osteoporosis, cartilage loss, osteosclerosis and osteitis in a mammal” (Orphelion AB, priority 2022, published 2026)

Assay: Dissolution of TT001 in I.V. formulation vehicle
Type: physicochemical
Settings: 0.1 to 10 mg/ml in 40% w/v HPβCD solution in water for injection; a couple of hours for complete dissolution
Experimental: FORMULATION METHOD FOR THE PREPARATION OF TT001 FOR I.V. DOSING, 0.1 to 10 mg/ml The formulation method is applicable at concentrations in formulation between 0.1 and 10 mg/mL corresponding to 0.262 and 26.2 μmol/mL • TT001 M.W.: 381.8 g/mol • 10 The dissolution of TT001 is moderate, allow a couple of hours for complete dissolution.
• Preparation of 40% w/v HPβCD solution in water for injection • Excipients Hydroxypropyl-β-cyclodextrin, Kleptose, Roquette (HPβCD) 400 mg (40% w/v) • Water for injection to 1 ml (1.13 g) • is Appearance Clear • Density 1.13 g/cm^3
• Preparation of TT001 I.V. formulations between 0.1 and 10 mg/ml • TT001 parent form 0.1-10 mg • Vehicle (40% w/v HPβCD solution in water for injection) to 1 ml (1.13 g) • Appearance Clear • Density 1.13 g/cm^3 • Comments

## C[C@@H](Oc1nnc(-c2ccncc2)n1C)c1cc(-c2cccc(Cl)c2)on1 [TT001, 4-[5-[(1R)-1-[5-(3-Chlorophenyl)-3-isoxazolyl]ethoxy]-4-methyl-4H-1,2,4-triazol-3-yl]pyridine]
  dissolution: moderate
